The text below walks through data of US6090987A, “Metal-ligand complex catalyzed processes” (Union Carbide Chemicals & Plastics Technology Corporation, priority 1998, dated 2000).

A short description of series [1]: Residual propylene hydroformylation activity after heat treatment, Ligand F catalyst (Table 1). How it is done: A catalyst solution (100 milliliters) was generated in a six ounce Fisher Porter Bottle by dissolving 0.063 grams of rhodium dicarbonyl 2,4-pentanedionate, 0.8 grams of Ligand F, 20 grams of n-butyraldehyde, and 78.7 grams of tetraethylene glycol dimethyl ether, subsequently alternately evacuating and flushing with nitrogen; and finally adding 60 psi of CO:H2, and placing the bottles in a 100° C. oil bath for 1 hour.
(§1) After closing the reactor, the system was again purged with nitrogen and place in an oil bath heated to 100° C. The hydroformylation reaction in each experiment was conducted at a total gas pressure of 160 psig. The target partial pressure of hydrogen, carbon monoxide, and propylene being about 45 psia, 45 psia, and 5 psia respectively, with the remainder being nitrogen. The flows of the feed gases (carbon monoxide, hydrogen, propylene, and nitrogen) were controlled individually with mass flow meters. The feed gases were dispersed into the precursor solution via stainless steel 7-micron filters used as spargers. The unreacted portion of the feed gases stripped out the product aldehydes. Each experiment was operated for 24 hours under the above conditions. The activity is defined as the observed reaction rate divided by the predicted reaction rate. The reaction rates are expressed in terms of gram moles per liter per hour.
The same procedure as in Example 2 was followed with the exception that a slow stream of 1,2-propadiene was purged through the initially generated catalyst solution for 5 minutes. Excess was then removed by alternately evacuating and flushing with nitrogen. The resulting solution was heated at 125° C. as in Example 2, and 20 milliliters of the resulting solution was transferred to a glass reactor as in Example 2 and the activity determined.
(§2) The same procedure as in Example 3 was followed except 2 milliliters of 1,3-butadiene was added to the generated catalyst and stirred for 5 minutes. Excess 1,3-butadiene was then removed by alternate evacuation and flushing with nitrogen. The resulting solution was heated at 125° C. as in Example 2, and 20 milliliters of the resulting solution was transferred to a glass reactor as in Example 2 and the activity determined.
The same procedure as in Example 4 was followed with the exception that 50 milliliters of a catalyst solution generated as in Example 2 was treated with 0.5 milliliters of 2-methyl-1,3-butadiene (isoprene) in place of 1,3-butadiene.
A catalyst solution (20 milliliters) was generated in a Fisher Porter Bottle as in Example 2 under 60 psi CO:H2 for 1 hour, then cooled to room temperature and treated with 0.5 milliliters of 1,3-butadiene. The solution was removed from the Fisher Bottle by hypodermic syringe and transferred to a 100 milliliter stirred stainless vessel and maintained at 140° C. under 15 psi nitrogen for 14 hours. The resulting solution was then transferred to the glass reactors as in Example 2, and the residual catalyst activity measured. […]
The same procedure as in Example 8 was followed except allene was employed in place of 1,3-butadiene, and the resulting solution heated at 140° C. for 48 hours without removing excess allene.
A 20 milliliter sample of freshly generated catalyst solution (prepared as in Example 2) was charged to the glass reactors and the activity measured.
The same procedure as in Example 8 was followed except 0.4 grams of 1,3-cyclohexadiene was employed in place of 1,3-butadiene.

Series [2] is described as follows: Residual propylene hydroformylation activity after heat treatment, Ligand D catalyst (Table 1). Conditions: fresh catalyst control, no heat treatment. How it is done:
as §1, with “About 20 milliliters of the solution was charged to a glass reactor via a syringe after purging the reactor with nitrogen (see Examples 14-20 below). After” for “After”
as §2
The same procedure as in Example 4 was followed except Ligand D (as identified herein) was employed in place of Ligand F. The results are given in Table 1.
The same procedure as in Example 10 was followed except the fresh catalyst solution contained Ligand D in place of Ligand F. The results are given in Table 1.

Series [3] can be described thus: Decomposition of free Ligand F and deactivated complex formation at 145° C. by HPLC (FIG. 3). The class given is physicochemical. Conditions: nitrogen 80 psig, no diene. How it is done: A catalyst solution (5 milliliters), 600 parts per million in rhodium and 0.8 weight percent in Ligand F generated as in Example 2 was charged to a 3 ounce Fisher Porter bottle and alternately flushed evacuated with nitrogen, then placed in a 145° C. oil bath under nitrogen (80 psig total pressure) and then monitored by HPLC at 1 and 3 hours for the Ligand F and deactivated complex concentrations. The free Ligand F concentration was 0.75, 0.57 and 0.37 weight percent at 0, 1 and 3 hours, respectively, while the deactivated complex concentration was 0.010, 0.57 and 0.89 weight percent at 0, 1 and 3 hours respectively.
The same procedure as in Example 21 was followed except the catalyst solution was treated with 1 milliliter of 1,3-butadiene and then heated at 145° C. for 3 hours (45 psig total pressure). The free Ligand F concentration measured by HPLC (high pressure liquid chromatography) was 0.75, 0.66, and 0.62 weight percent at 0, 1 and 3 hours, respectively, while the deactivated complex concentration was 0.010, 0.012, and 0.05 weight percent at 0, 1 and 3 hours respectively.

A short description of series [4]: Propylene hydroformylation rate and colour of (TPP)3 Rh(CO)H catalyst after thermal treatment. Conditions: for hydroformylation rate: control without butadiene, 100° C.; for color change of catalyst solution: control. How it is done:
TPP is triphenylphosphine. 15 grams of this bright yellow solution was charged to a Fisher Porter bottle under inert gas. To this solution was added 20 psi of butadiene with stirring. The pressure dropped as the butadiene dissolved into the solution. The reactor was repressured twice with butadiene (20 psig) and then the reaction was place under a total of 45 psig with nitrogen. The solution was heated to 120° C. for 15 minutes. […] At ambient temperature, the reaction was placed under vacuum for 4 hours to remove any excess butadiene.
Since the solvent has a very high boiling point, the concentration of rhodium was assumed to have remained unchanged while under vacuum. Indeed, no change in volume was detected visually while under vacuum. 15.0 milliliters of the 275 parts per million solution was charged to a 100 milliliter autoclave.
This example is a control for Example 23. 15 grams of the catalyst solution prepared in Example 23 was charged to a Fisher Porter bottle under inert gas. 45 psig of nitrogen was added to the reaction vessel, then the reaction was heated to 120° C. for 15 minutes. […] 15.0 milliliters of the 275 parts per million solution was charged to a 100 milliliter autoclave.
A catalyst solution was prepared by adding 113 milligrams of (TPP)3 Rh(CO)H to 40.4 grams Filmer IBT® available from Union Carbide Corporation, Danbury, Conn., resulting in a rhodium concentration of 312 parts per million. At this point, the rhodium complex was a suspended in the solvent. Approximately 20 grams of this solution of (TPP)3 Rh(CO)H in tetraglyme was charged to a Fisher Porter bottle under inert gas. To this solution was added 30 psi of butadiene with stirring. The pressure dropped to 20 psig as the butadiene dissolved into the solution. The reactor was repressured twice with butadiene (30 psig) and then the pressure was adjusted to 60 psig with nitrogen. The solution was placed into 140° C. oil bath, which caused the reaction to become homogeneous within a minute. The reaction was maintained at 140° C. for 50 minutes. […] The reaction vessel was removed from the oil bath and the butadiene was vented from the reactor while the reaction was hot. After gas evolution ceased, the reaction vessel was placed carefully placed under dynamic vacuum until gas evolution had ceased for 10 minutes. The reaction was then placed under a slight positive pressure of nitrogen. […] 15.0 milliliters of the 284 parts per million solution was charged to a 100 milliliter autoclave.
This example serves as a control for Example 25. Approximately 20 grams of the solution prepared in Example 25 was charged to a Fisher Porter bottle under inert gas. 60 psig of nitrogen was added to the reaction vessel, then the reaction was heated to 140° C. for approximately 110 minutes. […] This solution was place into and out of the oil bath at the same time as the solution in Example 25. After thermal treatment, 10 weight percent of triphenylphosphine was added to the reaction mixture. […] 15 milliliters of the 284 parts per million solution was charged to a 100 milliliter autoclave.

[5] abbreviates: 140° C./24 hours, excess diene present.
The mark [6] stands for this setting: 125° C./24 hours, no excess diene.
Where [7] appears, read: 140° C./48 hours, excess diene present.
Setting [8] is: 125° C./50 hours, no excess diene.

As for `C1=CCCC=C1` [1,3-cyclohexadiene], in series [1] (setting [5]), the “% Activity” value was 4.13% and the “Final Rate” value is 0.09 gram moles per liter per hour.

Regarding `C=C=C` [Allene, 1,2-propadiene], the “% Activity” value was 101% in series [1] (setting [6]) and 47.2% in series [1] (setting [7]). Besides, the “Final Rate” value in series [1] (setting [6]) is 2.22 gram moles per liter per hour; in series [1] (setting [7]), 1.03 gram moles per liter per hour.

Consider `C=CC(=C)C` [Isoprene, 2-methyl-1,3-butadiene], for which, in series [1] (setting [8]), the “% Activity” value worked out at 73.8% and the “Final Rate” value was 1.55 gram moles per liter per hour.

As to `COc1cc(-c2cc(OC)cc(C(C)(C)C)c2Op2oc3ccccc3c3ccccc3o2)c(Op2oc3ccccc3c3ccccc3o2)c(C(C)(C)C)c1` [Ligand D, 6,6'-[[3,3'-bis(1,1-dimethylethyl)-5,5'-dimethoxy-[1,1' -biphenyl]-2,2'-diyl]bis(oxy)]bis-dibenzo[d,f][1,3,2]dioxaphosphepin], the “Final Rate” value in series [2] was 1.16 gram moles per liter per hour.

`CC(C)(C)c1cc(-c2cc(C(C)(C)C)cc(C(C)(C)C)c2Op2oc3ccccc3c3ccccc3o2)c(Op2oc3ccccc3c3ccccc3o2)c(C(C)(C)C)c1` [Ligand F]: the “% Activity” value in series [1] (setting [6]) is listed as 10.0%. Besides, the “Final Rate” value is 0.22 gram moles per liter per hour in series [1] (setting [6]) and 2.18 gram moles per liter per hour in series [1] (fresh catalyst control, no heat treatment). Also, the deactivated complex concentration in series [3] (0 hours) stood at 0.010 weight percent; in series [3] (1 hour), 0.57 weight percent; in series [3] (3 hours), 0.89 weight percent. For the same compound, the “free Ligand F concentration” value worked out at 0.75 weight percent in series [3] (0 hours), 0.57 weight percent in series [3] (1 hour) and 0.37 weight percent in series [3] (3 hours).

Take `c1ccc(P(c2ccccc2)c2ccccc2)cc1` [triphenylphosphine, reference compound]: the hydroformylation rate worked out at 0.8 gmol/L-h in series [4] (after 120° C. for 15 minutes under nitrogen, 275 ppm Rh, 115 psig) and 0.3 gmol/L-h in series [4] (after 140° C. for approximately 110 minutes, 284 ppm Rh, 95 psig). Moreover, the “color change of catalyst solution” value in series [4] (120° C. for 15 minutes under nitrogen) and in series [4] (140° C. for approximately 110 minutes under nitrogen) was “turn from bright yellow to dark brown” throughout.
